Source: patent US3935229A, “Esters of 2-[(4-quinolyl)amino]-benzoic acids” (Synthelabo, priority 1973, dated 1976)
Counter-ions that a name gives are not always drawn.

Key:
[1] = test system: pain induced, in Swiss mice, by the intraperitoneal injection of phenylquinone; experiment: Siegmund test (analgesic effect against pain induced by intraperitoneal phenylquinone); assay type: in vivo; settings: for ED50: Mus musculus, po, read-out: Siegmund test AD50 (50% active dose), mice, oral administration
Description: 1. Effect against pain induced, in Swiss mice, by the intraperitoneal injection of phenylquinone, in accordance with the experimental procedure of Siegmund (Proc. Soc. Exp. Biol. Med., 1957, 95, 729), modified by Cheymol (C.R. Soc. Biol., 1963, 157, 521) and Brittain (Nature, London, 1963, […], 895).

[2] = test system: mice of both sexes, of the Swiss strain; experiment: in vivo; settings: mice, oral administration
Description: Tests were carried out on mice of both sexes, of the Swiss strain, of average weight 20 g. (± 2g.).

[3] = test system: carragenine-induced oedema of the paw, Sherman rats; experiment: Carragenine-induced oedema test (oedema of the paw); assay type: in vivo; settings: Rattus norvegicus, po, read-out: Carragenine-induced oedema test AD (AD40 = 40% active dose)
[4] = test system: heated plate test, Swiss mice; experiment: Heated plate test (plate heated by acetone vapours; analgesic effects of the central type); settings: oral

| SMILES | ED50 [1] | analgesic effects of the peripheral type (Siegmund test), compared with amidopyrine and glafenine ([1]; mice, oral, versus amidopyrine and glafenine) | Acute toxicity LD50 (50% lethal dose) ([2]; dihydrochloride) | ED40 [3] | analgesic effects of the central type (heated plate test), compared with amidopyrine ([4]; versus amidopyrine) | extent of the greater activity than amidopyrine in the heated plate test ([4]; versus amidopyrine) | Acute toxicity LD50 (50% lethal dose) [2] | central component of the analgesic effect (heated plate test) [4] |
| --- | --- | --- | --- | --- | --- | --- | --- | --- |
| O=C(OCCN1CCN(c2cccc(C(F)(F)F)c2)CC1)c1ccccc1Nc1ccnc2cc(C(F)(F)F)ccc12 [Compound 73-017, 2-(4'-m-trifluoromethylphenyl-piperazino)-ethyl 2-(7'-trifluoromethyl-4'-quinolyl-amino)-benzoate dihydrochloride] | 4 mg/kg | generally much more active | 1,500 mg/kg | 60 mg/kg | greater than that of amidopyrine | considerable | – | – |
| O=C(OCC(O)CO)c1ccccc1Nc1ccnc2cc(Cl)ccc12 (stereo not shown) [Glafenine, reference compound] | 50 mg/kg | – | – | 30 mg/kg | – | – | 3,500 mg/kg | much less strong |
